From US20190030009A1, “COMPOUNDS AND COMPOSITIONS FOR THE TREATMENT OF CRYPTOSPORIDIOSIS” (Novartis AG, priority 2016, published 2019) come the findings set out here.

SMILES strings stand for the structures. pEC50: −log10 of the molar value.

One data set concerns Cryptosporidium parvum. The data set is described as follows: Cytopathic effect (CPE) based assay, C. parvum infected HCT-8 cells. Particulars: HCT-8 host cell viability (CellTiter-Glo), 48 hours treatment, read-out: Cp CPE EC50. The protocol: Human ileocecal colorectal adenocarcinoma cells (HCT-8 [HRT-18] ATCC, CCL-34) were maintained in T-175 flasks (Corning, 431080) in complete growth medium (RPMI-1640 medium (Gibco, 11875) supplemented with 10% heat-inactivated horse serum (Gibco, 26050), 1×MEM non-essential amino acids (Gibco, 11140), 10 mM HEPES (Gibco, 15630), 100 units/mL penicillin, and 100 units/mL streptomycin) at 37° C. and 5% CO2 in a humidified incubator. Cultures were passaged twice weekly using 10 mL of 1×Phosphate-Buffered Saline (PBS) without Ca^2+ and Mg^2+ (Gibco, 20012) for washing and 3-5 mL per T-175 flask of TrypLE Express Enzyme (Gibco, 12604) for dissociation of adherent cells.
Cryptosporidium parvum oocysts purchased from the Sterling Laboratory, University of Arizona (Iowa isolate) were purified from infected calf feces using discontinuous sucrose and cesium chloride centrifugation gradients and stored in PBS solution containing 0.01% Tween 20, 100 units/mL penicillin and 100 units/mL gentamicin.
Excystation and infection protocols were developed following established methods with some modifications (Gut & Nelson, 1999, Upton et aL, 1995, Bessoff et aL, 2013). Briefly, oocysts were primed in 1 mL of 10 mM hydrochloric acid in 1× Hank's Balanced Salt Solution (HBSS) (Gibco, 14025) for 10 minutes with agitation at 1000 rpm, 37° C. on an Eppendorf thermomixer, then washed twice with 1 mL of room temperature non-acidic 1× HBSS by centrifugation at 13,000 rpm for 3 minutes at 25° C. Primed oocysts were further excysted at a concentration of 1×10^6 oocysts/μL in parasite infection medium consisting of a pre-warmed and pre-gassed 1:1 formulation of Leibovitz's L-15 medium (Gibco, 11415) and UltraCULTURE medium (Lonza, 12-725F) supplemented with 2 mM sodium taurocholate (Sigma, 86339-1), 10% heat-inactivated horse serum, and 200 μM L-ascorbic acid (Sigma, 95210) at 25° C. for 10 minutes. HCT-8 monolayer cells were infected with excysted cryptosporidium at a specified multiplicity of infection (MOI). All dilutions for subsequent assays were performed in parasite infection medium without sodium taurocholate. Pre-excysted oocysts were enumerated microscopically using a C-Chip disposable hemocytometer (NanoEnTek, DHC-N01).
Compound powders were dissolved in neat DMSO (Fisher, D4121) to 10 mM and stored at 4° C. prior to dilution into source plates. Dilutions were carried out using a Microlab STAR liquid handler (Hamilton) to obtain compound source plates containing the ten-point or eight-point three fold dilutions starting from 10 mM in duplicates. Source plates were stored at 4° C. prior to spotting into assay plates. Before administration, all compound source plates were equilibrated to room temperature. A specified volume of compounds from source plate were spotted to assay plate using an Echo Acoustic liquid handler (LABCYTE, 550) so that the final DMSO concentration was less than 0.5%. Each assay plate a specified number of DMSO-treated negative control wells and a well-studied potent active compound at 100 nM as positive control. As a quality control, all positive and negative-control wells were used to calculate a Z′-value and signal to noise ratio (S:N) for each plate.
Cryptosporidium spp are obligate-intracellular parasites that infect intestinal epithelial cells and the host cell is killed upon parasite egress. […] The loss of epithelial cells is due to both rapid parasite invasion/multiplication/egress and also pro-inflammatory immune response (Adams et al., 1994, Griffiths et al., 1994). We have observed a consistent cytopathic effect (CPE) in HCT-8 cells with C. spp infection the loss of viability of the host cells using CellTiter-Glo reagent.
Confluent HCT-8 cells in T-175 flasks were directly infected with excysted oocysts at an MOI (host to parasite) of 1:2 for C. parvum and 1:4 for C. hominis. The number of host-cells is determined using a NucleoCounter (Chemometec, NC-100) in a control flask. […]

Data set [1] is described as follows: Cytotoxicity against HepG2. It is filed as cell-based. The following applies: human, HepG2 cells (ATCC HB-8065), 5 days exposure. On the procedure:
Cytotoxicity against HepG2 (ATCC# HB-8065), a human liver cancer cell line, was determined as previously described earlier (Manjunatha et al., 2015). Briefly, cells were seeded at a density of 10^5 cells per well, incubated at 37° C. for 24 h and exposed to two-fold serially-diluted compounds for 5 days. Cell viability was monitored using the Cell Proliferation Kit II (Invitrogen). The cytotoxicity values of selected compounds are reported in the fifth column [HepG2 CC50 (μM)] of Table II.

As for `CN(C(=O)c1ccn2ncc(-c3ccc(C(N)=O)cc3)c2c1)c1ccc(Cl)cc1` [Example 100], in the data set with Cryptosporidium parvum, the pEC50 is 7.68. Also, in data set [1], the CC50 at 5 days amounted to 13.3 µM.
Taken in the same sequence, the figures for `CN(C(=O)c1ccn2ncc(-c3ccc(C(=O)O)cc3)c2c1)c1ccc(C#N)cn1` [Example 101] were 4.82 and > 50 µM.
In the case of `CN(C(=O)c1ccn2ncc(-c3ccc(C(=O)NCCO)cc3)c2c1)c1ccc(C#N)cn1` [Example 102], the pEC50 in the data set with Cryptosporidium parvum is 6.40. In data set [1], this compound returned a CC50 at 5 days of 38.5 µM.
`CN(C(=O)c1ccn2ncc(-c3ccc(C(=O)NCCN)cc3)c2c1)c1ccc(C#N)cn1` [Example 104]: the pEC50 in the data set with Cryptosporidium parvum is 5.44. Besides, the CC50 at 5 days in data set [1] was > 50 µM.
The like results for `N#Cc1ccc(N(CCO)C(=O)c2ccn3ncc(-c4ccc(C(N)=O)cc4)c3c2)cc1` [Example 105] were, in that order, < 4.70 and > 50 µM.
On to `CNC(=O)c1ccc(-c2cnn3ccc(C(=O)Nc4ccc(C#N)cn4)cc23)cc1` [Example 106], for which, in the data set on Cryptosporidium parvum, the pEC50 is < 4.70. The CC50 at 5 days in data set [1] was > 50 µM.
On to `CN(C(=O)c1ccn2ncc(-c3ccnc(N)c3)c2c1)c1ccc(C#N)cn1` [Example 108], for which the pEC50 in the data set with Cryptosporidium parvum was 5.31. The CC50 at 5 days in data set [1] stood at 14.2 µM.
As for `CNC(=O)c1ccc(-c2cnn3ccc(C(=O)N(C)c4ccc(Cl)cc4)cc23)cn1` [Example 109], the pEC50 with Cryptosporidium parvum was 6.89. The same compound gave a CC50 at 5 days in data set [1] of 16.9 µM.
Taken in the same sequence, the figures for `CNC(=O)c1ccc(-c2cnn3ccc(C(=O)N(CCO)c4ccc(C#N)cc4)cc23)cc1` [Example 110] were < 4.70 and 23.8 µM.
The like results for `CNC(=O)c1ccc(-c2cnn3ccc(C(=O)N(C)c4ccc(OCCN)cn4)cc23)cc1` [Example 111] were, in that order, < 4.70 and > 50 µM.
As for `CN(C(=O)c1ccn2ncc(-c3ccc(C(=O)NC4CCNCC4)cc3)c2c1)c1ccc(C#N)cn1` [Example 113], the pEC50 with Cryptosporidium parvum is 4.71. Moreover, the CC50 at 5 days in data set [1] was 2.67 µM.
As for `CNCCNC(=O)c1ccc(-c2cnn3ccc(C(=O)N(C)c4ccc(C#N)cn4)cc23)cc1` [Example 114], the pEC50 in the data set on Cryptosporidium parvum is 5.04. Besides, the CC50 at 5 days in data set [1] is 5.52 µM.
Regarding `CN(C)CCNC(=O)c1ccc(-c2cnn3ccc(C(=O)N(C)c4ccc(C#N)cn4)cc23)cc1` [Example 115], the pEC50 with Cryptosporidium parvum was 5.52. The same compound gave a CC50 at 5 days in data set [1] of 2.7 µM.
`CNC(=O)c1ccc(-c2cnn3ccc(C(=O)N(c4ccc(Cl)cc4)C4CC4)cc23)cc1` [Example 116]: the pEC50 in the data set on Cryptosporidium parvum was 8.15. This compound also showed a CC50 at 5 days in data set [1] of 3.01 µM.
Consider `CNC(=O)c1ccc(-c2cnn3ccc(C(=O)N(c4ccc(C#N)cc4)C4CC4)cc23)cc1` [Example 118], for which the pEC50 in the data set on Cryptosporidium parvum is 7.59. Also, the midpoint of cytotoxicity in data set [1], the CC50 at 5 days, lay at 5.9 µM.
As for `CNC(=O)c1ccc(-c2cnn3ccc(C(=O)N(C)c4ccc(OC)nc4)cc23)cc1` [Example 122], in the data set on Cryptosporidium parvum, the pEC50 was < 4.70. The compound also returned a CC50 at 5 days in data set [1] of 15.8 µM.
The like results for `CNC(=O)c1ccc(-c2cnn3ccc(C(=O)N(c4ccc(F)cn4)C4CC4)cc23)cc1` [Example 125] were, in that order, 6.15 and 25.5 µM.
Taken in the same sequence, the figures for `CNC(=O)c1ccc(-c2cnn3ccc(C(=O)N(c4ccc(C(=O)O)cn4)C4CC4)cc23)cc1` [Example 128] were < 4.70 and > 50 µM.
Taken in the same sequence, the figures for `CNC(=O)c1ccc(-c2cnn3ccc(C(=O)N(c4ccc(C(N)=O)cn4)C4CC4)cc23)cc1` [Example 129] were < 4.70 and > 50 µM.
With `CNC(=O)c1ccc(-c2cnn3ccc(C(=O)N(c4ccc(F)c(F)c4)C4CC4)cc23)cc1` [Example 130], the pEC50 with Cryptosporidium parvum was 6.63. In addition, the CC50 at 5 days in data set [1] is > 50 µM.
The like results for `CNC(=O)c1ccc(-c2cnn3ccc(C(=O)N(c4ccc(C(F)(F)F)cn4)C4CC4)cc23)cc1` [Example 132] were, in that order, 7.05 and 17.3 µM.
The like results for `CNC(=O)c1ccc(-c2cnn3ccc(C(=O)N(c4ccc(C#N)cn4)C4CC4)cc23)nc1` [Example 133] were, in that order, 5.66 and 20.9 µM.
In the case of `N#Cc1ccc(N(C(=O)c2ccn3ncc(-c4ccc(C(N)=O)cc4)c3c2)C2CC2)cc1` [Example 134], in the data set with Cryptosporidium parvum, the pEC50 is 7.38. The compound further gave a CC50 at 5 days in data set [1] of 7.24 µM.
`NC(=O)c1ccc(-c2cnn3ccc(C(=O)N(c4ccc(F)c(F)c4)C4CC4)cc23)cc1` [Example 135]: in the data set with Cryptosporidium parvum, the pEC50 is 6.55. Moreover, in data set [1], the CC50 at 5 days is 31.1 µM.
The like results for `CNC(=O)c1ccc(-c2cnn3ccc(C(=O)N(c4ccc(C)cn4)C4CC4)cc23)cc1` [Example 136] were, in that order, 6.37 and 6.32 µM.
On to `CNC(=O)c1ccc(-c2cnn3ccc(C(=O)N(c4ccc(C#N)cc4)C4CC4)cc23)cn1` [Example 137], for which, in the data set with Cryptosporidium parvum, the pEC50 was 6.46. The midpoint of cytotoxicity in data set [1], the CC50 at 5 days, lay at 2.19 µM.
Taken in the same sequence, the figures for `N#Cc1ccc(N(C(=O)c2ccn3ncc(-c4ccc(C(N)=O)nc4)c3c2)C2CC2)cc1` [Example 138] were 6.31 and 8.1 µM.
For the compound `N#Cc1ccc(N(C(=O)c2ccn3ncc(-c4ccc(C(N)=O)cn4)c3c2)C2CC2)nc1` [Example 139], the pEC50 in the data set with Cryptosporidium parvum was 5.68. Half-maximal cytotoxicity in data set [1] (CC50 at 5 days) was put at 16.7 µM.
Taken in the same sequence, the figures for `CCN(C(=O)c1ccn2ncc(-c3ccc(S(=O)(=O)NC)cc3)c2c1)c1ccc(C#N)cn1` [Example 140] were 4.99 and 26.1 µM.
Take `CNC(=O)c1ccc(-c2cnn3ccc(C(=O)N(c4ccc(C#N)cc4)C4CC4)cc23)nc1` [Example 141]: the pEC50 in the data set with Cryptosporidium parvum was 6.46. In addition, it took 20.8 µM to reach half-maximal cytotoxicity in data set [1] (CC50 at 5 days).
Taken in the same sequence, the figures for `N#Cc1ccc(N(C(=O)c2ccn3ncc(-c4ccc(C(N)=O)cn4)c3c2)C2CC2)cc1` [Example 142] were 6.42 and 18.3 µM.
In the case of `CNC(=O)c1ccc(-c2cnn3ccc(C(=O)N(c4ccc(Cl)cc4)C4CC4)cc23)cn1` [Example 143], the pEC50 in the data set with Cryptosporidium parvum is 7.10. Moreover, it took 17.5 µM to reach half-maximal cytotoxicity in data set [1] (CC50 at 5 days).
As for `CNC(=O)c1ccc(-c2cnn3ccc(C(=O)N(c4ccc(C#N)cn4)C4CCC4)cc23)cn1` [Example 144], the pEC50 in the data set on Cryptosporidium parvum was 5.75. The same compound had a CC50 at 5 days in data set [1] of 7.69 µM.
`CNC(=O)c1ccc(-c2cnn3ccc(C(=O)N(c4ccc(C#N)cc4)C4CCC4)cc23)cn1` [Example 145]: the pEC50 in the data set with Cryptosporidium parvum is 6.38. The compound further came in with a CC50 at 5 days in data set [1] of 16.8 µM.
On to `CNC(=O)c1ccc(-c2cnn3ccc(C(=O)N(c4ccc(C#N)cc4)C(C)C)cc23)cn1` [Example 146], for which, in the data set with Cryptosporidium parvum, the pEC50 is 6.48. The midpoint of cytotoxicity in data set [1], the CC50 at 5 days, lay at 32.1 µM.
Taken in the same sequence, the figures for `CNC(=O)c1ccc(-c2cnn3ccc(N(C(=O)c4ccc(C#N)cn4)C4CC4)cc23)cc1` [Example 147] were < 4.70 and 32.7 µM.
On to `CNC(=O)c1ccc(-c2cnn3ccc(C(=O)N(c4ccc(C#N)cn4)C(C)C)cc23)cn1` [Example 148], for which the pEC50 in the data set on Cryptosporidium parvum is 5.73. In data set [1], this compound registered a CC50 at 5 days of 20.1 µM.
The like results for `CNC(=O)c1ccc(-c2cnn3ccc(C(=O)N(c4ccc(F)cn4)C(C)C)cc23)cc1` [Example 151] were, in that order, 5.64 and 29.2 µM.
